Results from patent US9624215B2, “Amine derivative or salt thereof” (TOYAMA CHEMICAL CO., LTD., priority 2012, dated 2017).

The molecules below were run on normal human neonatal foreskin epidermal keratinocytes (NHEK-F) (assay: Cell proliferation inhibition test). Settings: Keratinocyte, 72 h, NHEK-F cells, three days incubation, ATPlite or CellTiterGlo, read-out: IC50 (concentration of the compound at which the cell count is reduced by 50%).
Assay type: cell-based
Protocol: 2×10^3 normal human neonatal foreskin epidermal keratinocytes (NHEK-F) (Kurabo, KK-4009) were suspended in 100 μL of Humedia-EG2 (Kurabo, KK-2150S) medium, plated in a 96-well plate and incubated overnight. The test compound was added on the following day and the cells were incubated for further three days. The cell count was determined using ATPlite (PerkinElmer, 6016739) or CellTiterGlo (Promega, G7573).
The inhibition rate was calculated from the following formula to determine the concentration of the compound at which the cell count is reduced by 50% (IC50). Inhibition rate (%)=100−(cell count in the presence of test compound/cell count in the absence of test compound)×100
`O=C(O)c1cc(Cl)ccc1Nc1ccc2c(ccn2Cc2cscn2)c1` [Example 302, 5-chloro-2-((1-(thiazol-4-ylmethyl)-1H-indol-5-yl)amino)benzoic acid] showed an IC50 of 10 to 100 nM.
Work on `Cn1cc(C2CC2)c2cc(Nc3ncc(C4CC4)cc3C(=O)O)ccc21` [Example 393, 5-cyclopropyl-2-((3-cyclopropyl-1-methyl-1H-indol-5-yl)amino)nicotinic acid] yielded an IC50 of 10 to 100 nM.
`O=C(O)c1cc(Cl)ccc1Nc1ccc2c(ccn2-c2cscn2)c1` [Example 271, 5-chloro-2-((1-(thiazol-4-yl)-1H-indol-5-yl)amino)benzoic acid] showed an IC50 of 10 to 100 nM.
`Cn1cc(-c2ccc(F)cc2)c2cc(Nc3ncc(C4CC4)cc3C(=O)O)ccc21` [Example 561, 5-cyclopropyl-2-((3-(4-fluorophenyl)-1-methyl-1H-indol-5-yl)amino)nicotinic acid] gave an IC50 of 10 to 100 nM.
For `O=C(O)c1cc(Cl)ccc1Nc1ccc2c(ccn2-c2ccc(Cl)cc2)c1` [Example 47, 5-chloro-2-((1-(4-chlorophenyl)-1H-indol-5-yl)amino)benzoic acid], the IC50 was at most 10 nM.
Molecule `Cn1ccc2cc(Nc3ncc(C4CC4)cc3C(=O)O)cc(/C=C/C3CC3)c21` [Example 469, (E)-5-cyclopropyl-2-((7-(2-cyclopropylvinyl)-1-methyl-1H-indol-5-yl)amino)nicotinic acid] has an IC50 of at most 10 nM.
In the case of `Cn1ccc2cc(Nc3ncc(C4CC4)cc3C(=O)O)cc(-c3cncnc3)c21` [Example 591, 5-cyclopropyl-2-((1-methyl-7-(pyrimidin-5-yl)-1H-indol-5-yl)amino)nicotinic acid], the IC50 is reported as 100 to 1000 nM.
For `Cn1ccc2cc(Nc3ncc(C4CC4)cc3C(=O)O)cc(-c3ccc(-c4ccccc4)cc3)c21` [Example 191, 2-((7-([1,1′-biphenyl]-4-yl)-1-methyl-1H-indol-5-yl)amino)-5-cyclopropylnicotinic acid], the IC50 was at most 10 nM.
`CCc1cnc(Nc2ccc3c(ccn3Cc3ccccc3)c2)c(C(=O)O)c1` [Example 381, 2-((1-benzyl-1H-indol-5-yl)amino)-5-ethylnicotinic acid] was tested, and the IC50 was 10 to 100 nM.
`O=C(O)c1cc(C2CC2)cnc1Nc1ccc2c(ccn2Cc2cccc(O)c2)c1` [Example 505, 5-cyclopropyl-2-((1-(3-hydroxybenzyl)-1H-indol-5-yl)amino)nicotinic acid] was tested, and the IC50 was at most 10 nM.
With `COCCCc1cccc(Cn2ccc3cc(Nc4ncc(C5CC5)cc4C(=O)O)ccc32)c1` [Example 509, 5-cyclopropyl-2-((1-(3-(3-methoxypropyl)benzyl)-1H-indol-5-yl)amino)nicotinic acid] the IC50 was at most 10 nM.
`CCO/C=C/c1cc(Nc2ncc(C3CC3)cc2C(=O)O)cc2ccn(C)c12` [Example 604, 5-cyclopropyl-2-((7-((E)-2-ethoxyethenyl)-1-methyl-1H-indol-5-yl)amino)nicotinic acid] gave an IC50 of 10 to 100 nM.
Molecule `Cn1ccc2cc(Nc3ncc(C4CC4)cc3C(=O)O)cc(-c3ccc(C(F)(F)F)cc3)c21` [Example 481] has an IC50 of at most 10 nM.
Work on `O=C(O)c1cc(C2CC2)cnc1Nc1ccc2c(-c3ccccc3)nccc2c1` [Example 527, 5-cyclopropyl-2-((1-phenylisoquinolin-6-yl)amino)nicotinic acid] yielded an IC50 of at most 10 nM.
`Cc1cnc(Nc2ccc3c(ccn3Cc3ccccc3)c2)c(C(=O)O)c1` [Example 125, 2-((1-benzyl-1H-indol-5-yl)amino)-5-methylnicotinic acid] showed an IC50 of 10 to 100 nM.
Molecule `O=C(O)c1cc(C2CC2)cnc1Nc1cccc2c1ccn2CC1CCCC1` [Example 537, 2-((1-(Cyclopentylmethyl)-1H-indol-4-yl)amino)-5-cyclopropylnicotinic acid] has an IC50 of at most 10 nM.
In the case of `O=C(O)c1cc(C2CC2)cnc1Nc1cccc2c(N3CCCCC3)nccc12` [Example 473, 5-cyclopropyl-2-(1-(piperidin-1-yl)isoquinolin-5-ylamino)nicotinic acid], the IC50 is reported as 10 to 100 nM.
In the case of `Cn1ccc2cc(Nc3ncc(C4CC4)cc3C(=O)O)cc(-c3cccc(F)c3F)c21` [Example 587, 5-cyclopropyl-2-((7-(2,3-difluorophenyl)-1-methyl-1H-indol-5-yl)amino)nicotinic acid], the IC50 is reported as at most 10 nM.
With `Cn1ccc2cc(Nc3ncc(Cl)cc3C(=O)O)cc(-c3ccccc3)c21` [Example 625, 5-chloro-2-((1-methyl-7-phenyl-1H-indol-5-yl)amino)nicotinic acid] the IC50 was 10 to 100 nM.
Work on `CCn1c2c(c3cc(Nc4ncc(C5CC5)cc4C(=O)O)ccc31)CCCC2` [Example 166, 5-cyclopropyl-2-((9-ethyl-2,3,4,9-tetrahydro-1H-carbazol-6-yl)amino)nicotinic acid] yielded an IC50 of 100 to 1000 nM.
Work on `CC(C)Cn1c(=O)sc2cc(Nc3ncc(C4CC4)cc3C(=O)O)ccc21` [Example 563, 5-Cyclopropyl-2-((3-isobutyl-2-oxo-2,3-dihydro-1,3-benzothiazol-6-yl)amino)nicotinic acid] yielded an IC50 of 10 to 100 nM.
For `O=C(O)c1cc(Cl)cnc1Nc1ccc2c(ccn2Cc2cccc(F)c2)c1` [Example 645, 5-chloro-2-((1-(3-fluorobenzyl)-1H-indol-5-yl)amino)nicotinic acid], the IC50 was 10 to 100 nM.
In the case of `CC(C)n1ccc2c(Nc3ncc(C4CC4)cc3C(=O)O)cccc21` [Example 435, 5-cyclopropyl-2-((1-isopropyl-1H-indol-4-yl)amino)nicotinic acid], the IC50 is reported as 10 to 100 nM.
`CCCCCn1ccc2cc(Nc3ncc(C4CC4)cc3C(=O)O)cc(CCCOC)c21` [Example 610, 5-cyclopropyl-2-((7-(3-methoxypropyl)-1-pentyl-1H-indol-5-yl)amino)nicotinic acid] showed an IC50 of at most 10 nM.
`O=C(O)c1cc(C2CC2)cnc1Nc1cccc2c(-c3ccccc3)ncnc12` [Example 531, 5-cyclopropyl-2-((4-phenylquinazolin-8-yl)amino)nicotinic acid] gave an IC50 of 10 to 100 nM.
In the case of `CCc1cc(Nc2ncc(C3CC3)cc2C(=O)O)cc2ccn(CC)c12` [Example 413, 5-cyclopropyl-2-((1,7-diethyl-1H-indol-5-yl)amino)nicotinic acid], the IC50 is reported as 10 to 100 nM.
`Cn1ccc2cc(Nc3ncc(C4CC4)cc3C(=O)O)cc(-c3ccccc3C(F)(F)F)c21` [Example 479] showed an IC50 of at most 10 nM.
In the case of `Cc1ccccc1-c1cc(Nc2ncc(C3CC3)cc2C(=O)O)cc2ccn(C)c12` [Example 476, 5-cyclopropyl-2-((1-methyl-7-(o-tolyl)-1H-indol-5-yl)amino)nicotinic acid], the IC50 is reported as at most 10 nM.
`CCn1cc(-c2ccccc2)c2cc(Nc3ncc(C4CC4)cc3C(=O)O)ccc21` [Example 170, 5-cyclopropyl-2-((1-ethyl-3-phenyl-1H-indol-5-yl)amino)nicotinic acid] was tested, and the IC50 was 10 to 100 nM.
`O=C(O)c1cc(C2CC2)cnc1Nc1cc2ccn(Cc3ccccc3)c2cc1F` [Example 552, 2-((1-benzyl-6-fluoro-1H-indol-5-yl)amino)-5-cyclopropylnicotinic acid] was tested, and the IC50 was at most 10 nM.
In the case of `O=C(O)c1cc(C2CC2)cnc1Nc1ccc2c(ccn2Cc2c(F)cccc2F)c1` [Example 634, 5-cyclopropyl-2-((1-(2,6-difluorobenzyl)-1H-indol-5-yl)amino)nicotinic acid], the IC50 is reported as at most 10 nM.
Molecule `O=C(O)c1cc(C2CC2)cnc1Nc1cccc2c1ccn2CC1CCCCO1` (stereo not drawn) [Example 423, 5-cyclopropyl-2-((1-((tetrahydro-2H-pyran-2-yl)methyl)-1H-indol-4-yl)amino)nicotinic acid] has an IC50 of 10 to 100 nM.
`O=C(O)c1cc(C2CC2)cnc1Nc1ccc2c(ccn2Cc2ccc(Cl)cc2)c1` [Example 461, 2-((1-(4-Chlorobenzyl)-1H-indol-5-yl)amino)-5-cyclopropylnicotinic acid] showed an IC50 of at most 10 nM.
